According to patent publication US20020168365A1, “Method for modulating granzyme B uptake and for identifying modulators thereof” (priority 2000, published 2002):

Tests used:
[1] = system: CD-MPR^+ cells; assay: TUNEL and annexin V apoptosis assays with grB and AD; assay type: cell-based, murine L cells transfected with human CD-MPR; details: 100 ng/ml grB and AD, 3 hr
Method: For the in vitro killing assays, 10 pfu per cell of replication-deficient adenovirus (AD) were added subsequent to grB addition. Analysis of DNA fragmentation by TUNEL analysis has been described previously (Heibein et al., 1999). TUNEL materials (Roche Diagnostics) were used as per the manufacturer's instructions. Phosphatidylserine externalization was measured as previously described (Heibein et al., 1999) using annexin V-FITC (PharMingen). Percent specific TUNEL/annexin V positive cells was calculated as: [(% positive labeling cells with grB and AD-% positive labeling cells without grB and AD)/(100-% positive labeling cells without grB and AD)]×100.

[2] = system: procaspase-3; assay: Caspase 3 cleavage by Western blotting; assay type: cell-based, human; details: grB (18 nM) and AD, 3 hr
Method: Cells were resuspended at 10^6 cells/ml in 0.1% BSA/DMEM. Adenovirus (10 PFU/cell) and granzyme B (grB) were added directly to the cell suspension. Cells were incubated at 37° C. for 3 h. For staurosporine killing, cells were resuspended at 10^6 cells/ml in their normal growth medium and staurosporine (2.5 μM) was added directly to the cell suspension. Cells were incubated at 37° C. for 2, 4 and 8 h. Cellular lysates were collected by directly harvesting 10^5 cells into 100 μl of sodium dodecyl sulfate-polyacrylamide gel electrophoresis (SDS-PAGE) gel loading buffer and subjected to SDS-PAGE analysis. Proteins were transferred to nitrocellulose (Micron Separations Inc.) by using a semidry transfer apparatus (Tyler Corp.) for 1 h at 150 mA. Membranes were blocked in phosphate-buffered saline (PBS) containing 0.1% Tween 20 (ICN Biomedicals Inc.) and 5% skim milk for 16 h. Caspase 3 was detected using polyclonal rabbit anti-caspase 3 at a dilution of 1:10,000. The membrane was incubated with the primary antibody for 2 h, after which the blot was washed three times in PBS containing 0.1% Tween 20. The membranes were probed with a horseradish peroxidase-conjugated goat anti-rabbit secondary antibody (Bio-Rad Laboratories) at a 1:20,000 dilution. Transferred proteins were visualized with a chemiluminescence detection system (Amersham Inc.).

[3] = system: L cells and the MPR-transfected L cell lines; assay: GrB binding assay (flow cytometry); design: species or system murine; details: grB treated with alkaline phosphatase in the absence of phosphate
Method: Cells (1-2×10^5) were washed twice and resuspended in buffer before the addition of grB-biotin or -OG in a final volume of 20 μl for a 30-60 min incubation and washed again twice. In the case of grB-biotin, cells were then incubated with streptavidin-cychrome for 20 min and washed twice. Unless otherwise indicated, ˜25 ng grB-biotin or -OG was used to label cells. All steps of the assay were carried out at 4° C. to prevent intracellular uptake of grB. PBS/0.1% BSA buffer was used throughout the procedure. In some cases, results are presented as the relative MFI, which represents the MFI of the grB-labeled population minus the MFI of the unlabeled population.
GrB was treated for 1 hr at 37° C. in a phosphate-free (saline) or a high-phosphate (64.5 mM Na2HPO4.7H2O, 21 mM KH2PO4) buffer with calf intestinal alkaline phosphatase (1-10 U), 20 nM of the 37 kDa catalytic subunit of recombinant protein phosphatase-1 (Bagu et al, 1997), or with vehicle control. Cells were then incubated with the treated grB at 4° C. for 30-60 min. For the TUNEL or annexin V assays, cells were then washed twice before incubation at 37° C. with AD.

[4] = system: CD-MPR^+ cells; assay: GrB uptake (unpublished findings); assay type: cell-based, murine L cells transfected with human CD-MPR; details: CD-MPR-overexpressing CD-MPR^+ cells
[5] = grB enzymatic activity (ASPase assay); assay type: biochemical, human
From the text: Human grB was purified from the cytolytic granules of YT-Indy cells as described previously (Caputo et al., 1999). GrB was derivatized with sulfo-NHS-biotin (Pierce) or OG 488 (Molecular Probes) as per the manufacturer's directions for labeling protein. Derivatized grB was separated from unbound probe by passing the material through a Sephadex G-25 column (HiTrapθ Desalting column, Pharmacia Biotech) with saline or phosphate-buffered saline (PBS) as the buffer. Typically the concentration of unlabeled grB was ˜50 μg/ml, whereas the estimated concentration of derivatized material was ˜5 μg/ml. GrB was assayed for enzymatic activity using an ASPase assay as previously described (Caputo et al., 1993).

[6] = system: breast carcinoma cell lines (T47-D, MDA-MB-231, SK-BR-3, MCF-7); assay: grB/AD-mediated apoptosis (TUNEL, annexin V) in carcinoma cell lines; assay type: cell-based, human
Method: Cells were resuspended at 10^6 cells/ml in 0.1% BSA/DMEM. Adenovirus (10 PFU/cell) and granzyme B (grB) were added directly to the cell suspension. Cells were incubated at 37° C. for 3 h. For staurosporine killing, cells were resuspended at 10^6 cells/ml in their normal growth medium and staurosporine (2.5 μM) was added directly to the cell suspension. Cells were incubated at 37° C. for 2, 4 and 8 h. DNA fragmentation was monitored by flow cytometric analysis via the terminal deoxynucleotidyltransferase-mediated dUTP-biotin nick end labeling (TUNEL) method. Flow cytometric analysis was performed on a Becton Dickinson FACScanθ flow cytometer equipped with an argon-ion laser with 15 mW of excitation at 488 nm. Emission wavelengths were detected through the FL1 channel. Data were acquired on 10,000 cells per sample with light scatter signals at linear gain and fluorescence signals at logarithmic gain. Percent specific TUNEL positive cells was calculated as follows: [(% positive labeling cells with grB and AD−% positive labeling cells without grB and AD)/(AD−% positive labeling cells without grB and AD)]×100. Phosphatidylserine externalization was monitored using the ApoAlertθ annexin V apoptosis kit (Clontech) according to the protocol provided by the manufacturer. Flow cytometric analysis was performed on a Becton Dickinson FACScanθ flow cytometer equipped with an argon-ion laser with 15 mW of excitation at 488 nm. Emission wavelengths were detected through the FL1 channel. Data were acquired on 10,000 cells per sample with light scatter signals at linear gain and fluorescence signals at logarithmic gain. Percent specific Annexin V positive cells was calculated as follows: [(% positive labeling cells with grB and AD−% positive labeling cells without grB and AD)/(AD−% positive labeling cells without grB and AD)]×100.

[7] = all the carcinoma cell lines, 3 hr

In the case of “grB: Human serine proteinase granzyme B purified from the cytolytic granules of YT-Indy cells”, the “annexin V binding after grB and AD” value [1] is reported as “did not bind annexin V”, the “grB and AD-mediated DNA fragmentation” value [1] is reported as “resistant” and the “cleavage of procaspase-3” value ([2]; Jurkat cells) is reported as “able to observe cleavage”. For the same substance, the “cleavage of procaspase-3” value ([2]; MDA-MB-231 cells) was “unable to observe any cleavage”, the “cleavage of procaspase-3” value ([2]; SK-BR-3 cells) was “unable to observe any cleavage” and the “cleavage of procaspase-3” value ([2]; T47-D cells) was “able to observe cleavage”. The “binding to L cells and the MPR-transfected L cell lines” value [3] was “dramatic decrease in binding”, the grB uptake [4] was “essentially no grB uptake” and the “enzymatic activity of grB” value ([5]; grB treated with catalytic subunit of protein phosphatase-1 (data not shown)) was “did not lose”. The “enzymatic activity of grB” value ([5]; grB treated with phosphatase in a phosphate-free buffer) was “no effect”, the “DNA fragmentation or phosphatidylserine externalization” value ([6]; MCF-7 cells, granzyme B and adenovirus) was “no DNA-fragmentation or phosphatidylserine externalization could be detected” and the “phosphatidylserine exposure or DNA fragmentation” value ([6]; T47-D cells, granzyme B and adenovirus) was “unable to detect any phosphatidylserine exposure or DNA fragmentation”. For the same substance, the “annexin V binding after grB and AD” value [6, 7] was “did not bind annexin V” and the “grB and AD-mediated DNA fragmentation” value [6, 7] was “resistant”.
